Measurements reported in US20240123016A1, “WITHANOLIDE-ENRICHED COMPOSITIONS AND METHODS OF USE THEREOF” (priority 2021, published 2024).

Tests used:
[1] = DPPH radical scavenging assay (antioxidant activity); type: biochemical; conditions: 1000 μg/ml, 30 minutes
Procedure: Antioxidant activity of various Ashwagandha samples was measured using a 2,2-diphenyl-1-picrylhydrazyl (DPPH) radical scavenging assay. DPPH is a stable free radical that produces violet solution in ethanol and, upon reduction by antioxidant compounds, produces light yellow-to-colorless solutions. For comparative antioxidant activity analysis of […], relative to non- branded and branded Ashwagandha compositions, two different dilutions (100 μg/ml and 1000 μg/ml) of each sample were prepared in ethanol and 500 μl of each sample dilution was mixed (1:1) with 500 μl of 0.04 mg/ml DPPH (Sigma #D9132-1G) ethanolic solution. Gallic acid (a natural polyphenolic antioxidant) and sucrose were used as positive and negative controls, respectively. All samples and controls were thoroughly vortexed and incubated for 30 minutes at room temperature in the dark followed by absorbance (Abs) readings at 517 nm using a spectrophotometer. Percentage antioxidant activity was calculated using the formula: 100-(AbsSample-AbsBlank/AbsControl×100), where AbsSample=Sample Dilution+DPPH Solution; AbsBlank=Sample Dilution+DPPH solvent; and AbsControl=Sample Solvent+DPPH Solution.

HEK293 cells = assay: cells; conditions: Homo sapiens, HEK293, read-out: IC50 for H2O2 treatment (cell viability)
Procedure: Cell viability was analyzed using the MTT assay described herein.

Row | Compound | percent anti-oxidant activity (%AA) [1] | IC50 (HEK293 cells)
1 | O=C(O)c1cc(O)c(O)c(O)c1 [Gallic acid] | 90.12±1.1% | –
2 | OO [H2O2, hydrogen peroxide] | – | 400 µM
